Values of other authors in article PMC9516332 (Frontiers in Oncology, 2022).
Like-named read-outs stand apart in the source and are kept apart here.

What was measured:
[1] = target: panel of 255 wild-type kinases (Homo sapiens, UniProt P06241); conditions: kinase FYN [isoform a], 1 µmol/L single concentration, cited from earlier work
[2] = target: panel of 255 wild-type kinases (Homo sapiens, UniProt P19784); conditions: kinase CK2α2/β, 1 µmol/L single concentration, cited from earlier work
[3] = target: panel of 255 wild-type kinases (Homo sapiens, UniProt Q13153); conditions: PAK1, 1 µmol/L single concentration, cited from earlier work
[4] = target: panel of 255 wild-type kinases (Homo sapiens, UniProt Q08345); conditions: kinase DDR1, 1 µmol/L single concentration, cited from earlier work
[5] = target: panel of 255 wild-type kinases (Homo sapiens, UniProt Q9H0K1); conditions: kinase QIK, 1 µmol/L single concentration, cited from earlier work
[6] = target: panel of 255 wild-type kinases (Homo sapiens, UniProt P00533); conditions: kinase EGFR, 1 µmol/L single concentration, cited from earlier work
[7] = target: T1, panel of 255 wild-type kinases (Homo sapiens, UniProt Q15139); conditions: kinase PKD1, 1 µmol/L single concentration, cited from earlier work
T1 sequence (Q15139 1-912): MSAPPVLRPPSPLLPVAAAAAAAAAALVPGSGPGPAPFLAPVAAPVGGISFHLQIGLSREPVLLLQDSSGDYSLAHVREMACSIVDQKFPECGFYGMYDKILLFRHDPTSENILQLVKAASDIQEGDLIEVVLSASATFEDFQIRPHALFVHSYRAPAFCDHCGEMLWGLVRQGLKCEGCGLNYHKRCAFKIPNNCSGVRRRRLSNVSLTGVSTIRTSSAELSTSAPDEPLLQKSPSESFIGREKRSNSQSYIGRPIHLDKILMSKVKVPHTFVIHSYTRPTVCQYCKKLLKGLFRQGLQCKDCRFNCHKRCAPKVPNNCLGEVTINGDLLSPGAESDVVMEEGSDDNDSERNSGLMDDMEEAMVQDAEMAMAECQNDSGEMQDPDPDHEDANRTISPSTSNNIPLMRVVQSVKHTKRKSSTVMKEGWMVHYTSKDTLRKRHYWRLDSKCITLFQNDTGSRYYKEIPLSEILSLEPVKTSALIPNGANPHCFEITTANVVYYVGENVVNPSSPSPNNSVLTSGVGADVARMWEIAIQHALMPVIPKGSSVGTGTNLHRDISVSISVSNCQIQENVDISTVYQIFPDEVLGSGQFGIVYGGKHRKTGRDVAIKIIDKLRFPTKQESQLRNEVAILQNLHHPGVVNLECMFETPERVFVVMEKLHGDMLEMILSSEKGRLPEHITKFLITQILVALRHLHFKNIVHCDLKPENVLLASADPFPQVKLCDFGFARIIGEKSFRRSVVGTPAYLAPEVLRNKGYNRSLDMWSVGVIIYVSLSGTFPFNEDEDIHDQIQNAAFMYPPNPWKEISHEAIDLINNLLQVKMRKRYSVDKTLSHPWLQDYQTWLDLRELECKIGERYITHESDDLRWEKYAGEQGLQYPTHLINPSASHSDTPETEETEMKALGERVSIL

[8] = target: T2, panel of 255 wild-type kinases (Homo sapiens, UniProt O14757); conditions: CHK1 kinase assay, 1 µmol/L single concentration, cited from earlier work
T2 sequence (O14757 1-476): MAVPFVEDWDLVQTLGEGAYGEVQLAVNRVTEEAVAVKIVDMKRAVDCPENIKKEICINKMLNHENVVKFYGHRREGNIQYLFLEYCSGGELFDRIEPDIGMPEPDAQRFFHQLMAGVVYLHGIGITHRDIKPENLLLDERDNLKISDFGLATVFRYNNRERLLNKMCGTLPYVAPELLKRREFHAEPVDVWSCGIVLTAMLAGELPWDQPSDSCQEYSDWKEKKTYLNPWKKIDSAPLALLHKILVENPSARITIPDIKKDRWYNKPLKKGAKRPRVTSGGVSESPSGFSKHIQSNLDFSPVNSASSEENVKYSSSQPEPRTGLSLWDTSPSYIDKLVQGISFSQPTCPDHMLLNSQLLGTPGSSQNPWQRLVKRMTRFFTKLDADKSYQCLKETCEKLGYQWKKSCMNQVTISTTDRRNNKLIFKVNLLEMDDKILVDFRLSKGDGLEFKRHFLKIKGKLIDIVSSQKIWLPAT

[9] = target: panel of 255 wild-type kinases (Homo sapiens, UniProt P41240); conditions: kinase CSK, 1 µmol/L single concentration, cited from earlier work
[10] = target: panel of 255 wild-type kinases (Homo sapiens, UniProt Q16539); conditions: p38α, 1 µmol/L single concentration, cited from earlier work
[11] = target: panel of 255 wild-type kinases (Homo sapiens, UniProt P49761); conditions: kinase CLK3, 1 µmol/L single concentration, cited from earlier work
[12] = target: panel of 255 wild-type kinases (Homo sapiens, UniProt Q14289); conditions: kinase PYK2, 1 µmol/L single concentration, cited from earlier work
[13] = target: panel of 255 wild-type kinases (Homo sapiens, UniProt Q9HCP0); conditions: kinase CK1γ1, 1 µmol/L single concentration, cited from earlier work
[14] = ref DOI: 10.1158/1535-7163.MCT-18-0877
[15] = ref DOI: 10.1371/journal.pone.0092146

Row | SMILES | %-inhibition at 1 µmol/L, FYN [isoform a] [1, 14] [%] | %-inhibition at 1 µmol/L, CK2α2/β [2, 14] [%] | %-inhibition, PAK1 [3, 14] [%] | %-inhibition at 1 µmol/L, DDR1 [4, 14] [%] | %-inhibition at 1 µmol/L, QIK [5, 14] [%] | %-inhibition at 1 µmol/L, PKD1 [7, 14] [%] | %-inhibition CHK1 [8, 14] [%] | %-inhibition at 1 µmol/L, CSK [9, 14] [%] | %-inhibition, p38α [10, 14] [%] | %-inhibition at 1 µmol/L, CLK3 [11, 14] [%] | %-inhibition at 1 µmol/L, PYK2 [12, 14] [%] | %-inhibition at 1 µmol/L, CK1γ1 [13, 14] [%] | %-inhibition at 1 µmol/L, QIK [5, 15] [%] | %-inhibition at 1 µmol/L, CSK [9, 15] [%] | %-inhibition at 1 µmol/L, CLK3 [11, 15] [%] | also measured
1 | CC#CC(=O)N1CCC[C@H]1c1nc(-c2ccc(C(=O)Nc3ccccn3)cc2)c2c(N)nccn12 [acalabrutinib] | 6 | 10 | -0.369 | 8 | -0.215 | -9.48 | -7 | 7 | -0.752 | -15 | -3.55 | 0.334 | – | – | – | %-inhibition at 1 µmol/L, EGFR [6, 14]: 19%
2 | CCc1cc2c(cc1N1CCC(N3CCOCC3)CC1)C(C)(C)c1[nH]c3cc(C#N)ccc3c1C2=O [alectinib] | 15 | -3 | -14 | 16 | 3 | 2 | 0.288 | 6 | -0.471 | -2.36 | 47 | -0.412 | – | – | – | –
3 | Cc1cc(Nc2ncc(Cl)c(Nc3ccccc3S(=O)(=O)C(C)C)n2)c(OC(C)C)cc1C1CCNCC1 [ceritinib] | 4 | -6 | 7.58 | 50 | 7.41 | 27 | 1.32 | 3 | 1.8 | 36 | 100 | 19 | – | – | – | –
4 | C[C@@H](Oc1cc(-c2cnn(C3CCNCC3)c2)cnc1N)c1c(Cl)ccc(F)c1Cl [crizotinib] | – | – | – | – | – | – | – | – | – | – | – | – | 38 | 9 | -5 | %-inhibition at 1 µmol/L, FYN [isoform a] [1, 15]: 42%; %-inhibition at 1 µmol/L, CK2α2/β [2, 15]: -10%; %-inhibition, PAK1 [3, 15]: -4%; %-inhibition at 1 µmol/L, DDR1 [4, 15]: 97%; %-inhibition CHK1 [8, 15]: 10%; %-inhibition, p38α [10, 15]: -2.27%; %-inhibition at 1 µmol/L, CK1γ1 [13, 15]: -3.52%
5 | CC(C)(C)c1nc(-c2cccc(NS(=O)(=O)c3c(F)cccc3F)c2F)c(-c2ccnc(N)n2)s1 [dabrafenib] | – | – | – | – | – | – | – | – | – | – | – | – | 80 | 98 | 17 | %-inhibition at 1 µmol/L, DDR1 [4, 15]: 96%; %-inhibition at 1 µmol/L, PKD1 [7, 15]: 83%; %-inhibition at 1 µmol/L, PYK2 [12, 15]: 56%
6 | C=CC(=O)N1CCC[C@@H](n2nc(-c3ccc(Oc4ccccc4)cc3)c3c(N)ncnc32)C1 [ibrutinib] | 93 | -7 | 6.57 | 37 | 4.7 | 3.22 | 10 | – | -2.71 | – | 3.37 | 3.68 | – | – | – | –
7 | CO[C@@H]1[C@H](N(C)C(=O)c2ccccc2)C[C@H]2O[C@]1(C)n1c3ccccc3c3c4c(c5c6ccccc6n2c5c31)C(=O)NC4 [midostaurin] | 78 | 2 | – | 98 | – | – | 68 | 58 | -1.38 | – | 72 | -0.49 | – | – | – | %-inhibition at 1 µmol/L, EGFR [6, 14]: 69%
8 | C=CC(=O)Nc1cc(Nc2nccc(-c3cn(C)c4ccccc34)n2)c(OC)cc1N(C)CCN(C)C [osimertinib] | 0.721 | 16 | -44 | 46 | 33 | 22 | 11 | 9 | -6 | 6 | 62 | 10 | – | – | – | –
9 | CC(=O)Nc1cccc(-n2c(=O)n(C3CC3)c(=O)c3c(Nc4ccc(I)cc4F)n(C)c(=O)c(C)c32)c1 [trametinib] | – | – | – | – | – | – | – | – | – | – | – | – | -4.66 | -2.83 | -0.0684 | %-inhibition at 1 µmol/L, FYN [isoform a] [1, 15]: 9%; %-inhibition at 1 µmol/L, CK2α2/β [2, 15]: -5.29%; %-inhibition, PAK1 [3, 15]: -1.35%; %-inhibition at 1 µmol/L, EGFR [6, 15]: -0.0959%; %-inhibition at 1 µmol/L, PKD1 [7, 15]: 9%; %-inhibition CHK1 [8, 15]: -0.719%; %-inhibition, p38α [10, 15]: -4%; %-inhibition at 1 µmol/L, PYK2 [12, 15]: 2.72%; %-inhibition at 1 µmol/L, CK1γ1 [13, 15]: 0.211%
